Results published in patent US8709440B2, “Agent for expelling parasites in humans, animals or birds” (Momentum Animal Cure BVBA, priority 2009, dated 2014).

Tested on: helminths that were resistant to ivermectine, pyrantel, praziquantel and moxidectine
Experiment: Treatment of Horse 4 severely infected with resistant parasites
Type: in vivo
Details: Horse 4 severely infected with parasites
Experimental: Horse 4 was treated with 38 g Asafoetida powder with Arabic gum mixed in milk and with cereal.

Row | Compound | result of several treatments
1 | CN1CCCN=C1/C=C/c1cccs1 [pyrantel] | had no result
2 | O=C(C1CCCCC1)N1CC(=O)N2CCc3ccccc3C2C1 (stereo not shown) [praziquantel] | had no result
3 | CO/N=C1\C[C@]2(C[C@@H]3C[C@@H](C/C=C(\C)C[C@@H](C)/C=C/C=C4\CO[C@@H]5[C@H](O)C(C)=C[C@@H](C(=O)O3)[C@]45O)O2)O[C@H](/C(C)=C/C(C)C)[C@H]1C [moxidectine] | had no result
4 | ivermectine | had no result
